Experimental findings from PubChem BioAssay AID1996 are described below.

Values after ≈ are worked out from the molar mass of the structure shown.

For the data set the following is noted: buffer; pH 7.4; 200.0 µM.
With `CC(=O)Nc1ccc(CN2CCN(CC=C(C)C)C(CCO)C2)cc1` (configuration not stated), the kinetic solubility was over 51.8 µg/mL.
As for `COC(=O)c1c(-c2c(Cl)cccc2Cl)noc1NC(=O)N(C)C`, the figure is 49.3 µg/mL (≈ 138 µM); as for `CCCCCCCCNC1=CC(=O)CC(C)(C)C1`, 12.5 µg/mL (≈ 49.7 µM).
As for `CC(=O)O.CN1CCCC(CN2c3ccccc3Sc3ccccc32)C1` (configuration not stated), the figure is over 55.6 µg/mL; as for `CCOc1ccc(NC(=S)NC(=O)/C=C/c2ccco2)cc1`, under 0.3 µg/mL; as for `N=C(N=C(N)N)N1CCc2ccccc21`, over 30.5 µg/mL.
With `Cc1cccc(NC(=O)c2cccc(N3C(=O)CCC3=O)c2)c1` the figure was over 46.3 µg/mL.
The compound `CC(NC(=O)c1cc(=O)[nH]c2ccccc12)c1ccc(F)cc1F` (configuration not stated) displayed a solubility (kinetic) of 2.8 µg/mL (≈ 8.53 µM).
`O=S(=O)(c1ccccc1)N(Cc1cccc(F)c1)c1ccccc1`: the solubility (kinetic) is under 0.7 µg/mL.
With `CCC(CC)NC(=O)CO/N=C/c1ccc(Cl)cc1Cl` the figure was 3 µg/mL (≈ 9.46 µM).
`CCN(CC)C(=O)CSC(Nc1cccc(F)c1)=C(C#N)C#N` displayed a kinetic solubility of over 49.9 µg/mL.
With `CN(C)CCCNC(=O)N1c2ccccc2C=Cc2ccccc21.Cl` the figure was over 53.7 µg/mL; with `OCCC1CN(Cc2cccnc2)CCN1CCc1ccccc1` (configuration not stated), 42.4 µg/mL (≈ 130 µM); with `CCOC(=O)C[N+]1(C)CCN(C(C)=O)CC1.[Br-]`, over 46.4 µg/mL.
As to `CC(=O)Nc1ccc(N2CCN(c3ccc(C(F)(F)F)cn3)CC2)nc1`, the solubility (kinetic) is 0.8 µg/mL (≈ 2.19 µM).
With `CC1Cc2ccccc2N1C(=O)CN1CCC(C(N)=O)CC1` (configuration not stated) the figure was over 45.2 µg/mL.
As for `O=C(NCCc1ccc(Cl)cc1)C1CCCN1C(=O)Nc1ccccc1` (configuration not stated), the figure is 54.7 µg/mL (≈ 147 µM); as for `O=C(CCCSc1nc2ccccc2[nH]1)NC1CCCCC1`, over 47.6 µg/mL.
As for `COc1ccc(Cl)cc1N1C(=N)SCC1=O`, the figure is over 38.5 µg/mL; as for `COc1ccccc1NC(=O)c1coc(=O)c(Br)c1`, 5.4 µg/mL (≈ 16.7 µM).
Turning to `Cc1ccc2oc(=O)n(CC(=O)OCCC(C)C)c2c1`, the kinetic solubility was determined as 16 µg/mL (≈ 57.7 µM). Against the preceding compound, the solubility kinetic is about 3-fold higher.
With `CCSc1ncccc1C(=O)N[C@@H](CCSC)C(=O)OC` the figure was 36.1 µg/mL (≈ 110 µM).
With `CC1=C(C(=O)N(C)C)C(c2ccc(C)s2)NC(=S)N1` (configuration not stated) the figure was 31.4 µg/mL (≈ 106 µM); with `CCCNC(=O)c1cnc(-c2ccccc2)nc1-c1ccccc1`, 1 µg/mL (≈ 3.15 µM).
`COC(=O)c1ccc(COc2ccc(/C=N/O)cc2)o1` showed a kinetic solubility of over 41.3 µg/mL.
With `O=C(COc1ccc2ccccc2c1)Nc1ccncc1` the figure was 6.1 µg/mL (≈ 21.9 µM); with `Cc1ccc(C(=O)NCc2ccc3c(c2)OCO3)cc1`, 34.8 µg/mL (≈ 129 µM); with `Cc1c(Cl)cccc1NC(=O)CC(Cc1ccccc1)C(=O)O` (configuration not stated), over 49.8 µg/mL.
With `CCCN1CCC(NC(=S)Nc2cccc(Cl)c2Cl)CC1` the figure was over 51.9 µg/mL; with `COc1ccccc1C(=O)N=c1sc2c(C)ccc(OC)c2n1C`, 1.8 µg/mL (≈ 5.26 µM); with `COc1ccccc1CNc1ncnc2cc(OC)c(OC)cc12`, 13 µg/mL (≈ 40 µM).
With `Nc1[nH]c(=O)[nH]c(=O)c1N=Nc1ccc(C(=O)O)cc1` the figure was over 41.3 µg/mL.
On to `CC(C)C(NC(=O)c1ccccc1)C(=O)N1CCCCCC1` (configuration not stated), for which the kinetic solubility was over 45.4 µg/mL.
With `CCOc1ccc(NC(=O)CSc2nncn2C)cc1` the figure was over 43.9 µg/mL; with `CCOc1ncccc1C(=O)Nc1ccc2c(c1)OCCO2`, over 45 µg/mL.
On to `O=C(NC(=S)Nc1ncccn1)c1ccc(F)cc1`, for which the kinetic solubility worked out at 7.3 µg/mL (≈ 26.4 µM).
As for `COc1ccc([C@@H]2OC2(C(N)=O)C(N)=O)cc1`, the figure is 32.2 µg/mL (≈ 136 µM); as for `O=C1/C(=C/c2cccnc2)CC/C1=C\c1cccnc1`, 17.1 µg/mL (≈ 65.2 µM).
As for `COc1cc2c(cc1OC)C(CCc1ccccc1)=NCC2`, the figure is 42.6 µg/mL (≈ 144 µM); as for `O=C(Nc1ccc(Cl)cn1)c1ccc2nccnc2c1`, 3.6 µg/mL (≈ 12.6 µM); as for `O=C1CSC(=Nc2cccc(C(=O)O)c2)N1`, over 35.4 µg/mL.
As for `O=C(COC(=O)/C=C/c1ccc(Cl)cc1)NC1CC1`, the figure is 7.1 µg/mL (≈ 25.4 µM).
`O=C(O)c1csc(-c2cccs2)n1` gave a solubility (kinetic) of over 31.7 µg/mL.
With `COc1cccc(CC(=O)Nc2nc3ccccc3[nH]2)c1` the figure was 2.2 µg/mL (≈ 7.82 µM); with `COc1ccccc1NC(=O)NCC1CC1(Cl)Cl` (configuration not stated), 42.1 µg/mL (≈ 146 µM).
With `Cn1c(N2CCOCC2)c(C#N)c2ccccc21` the figure was 17 µg/mL (≈ 70.5 µM); with `CCOC(=O)C1=C(C)OC(N)=C(C#N)C1c1cc(SCC)oc1C` (configuration not stated), 23.9 µg/mL (≈ 68.6 µM); with `COc1ccccc1CC(=O)N1CCN(c2ccc(F)cc2)CC1`, over 49.3 µg/mL.
As for `Cc1cc(C)cc(OCc2nc(-c3cccnc3)no2)c1`, the figure is 13.3 µg/mL (≈ 47.3 µM); as for `Cc1cc(C(=O)Nc2ccc(Br)cn2)sc1C`, 2.2 µg/mL (≈ 7.07 µM); as for `COc1ccc(S(=O)(=O)N2CCOc3ccccc32)cc1`, 17.6 µg/mL (≈ 57.6 µM).
Take `COC(=O)c1sccc1NC(=O)Nc1cc(C)ccc1OC`: the kinetic solubility stood at 11.1 µg/mL (≈ 34.6 µM). Compared with the last compound, the solubility kinetic is about 1.6-fold lower.
With `Cn1c(SCC(=O)NC2CCCC2)nnc1-c1ccco1` the figure was over 46 µg/mL.
With `CC(C)CNC(=O)c1cccc2c1-c1ccccc1C2=O` the figure was 2.5 µg/mL (≈ 8.95 µM).
Consider `CCN(CC)C(=S)Oc1ccc(Cl)cc1Cl`, for which the solubility (kinetic) was determined as 0.9 µg/mL (≈ 3.24 µM).
As for `COC(=O)c1sccc1NC(=O)Nc1cccc(OC)c1`, the figure is over 46 µg/mL.
As for `Cc1ccccc1-n1c(=O)n(Cc2ccco2)c(=O)c2[nH]cnc21`, the figure is over 48.3 µg/mL; as for `CCn1c(=O)c(-c2nc3ccccc3[nH]2)c(O)c2ccccc21`, under 0.2 µg/mL; as for `COc1cc(NC(=O)CCCn2c(=O)oc3ccccc32)cc(OC)c1`, 24.2 µg/mL (≈ 67.9 µM).
`Cc1ccccc1CC(=O)N1CCCC1` came in with a solubility (kinetic) of 29.7 µg/mL (≈ 146 µM). This solubility kinetic and that of the compound before are within 1.5-fold of each other.
With `COC(=O)c1c(NC(=O)C2CC2)sc(C(=O)Nc2ccccc2)c1C` the figure was 1.7 µg/mL (≈ 4.74 µM); with `CC(C)N(C1=CC(=O)OC12CCCCC2)C(C)C`, over 37.7 µg/mL.
On to `CC(=O)C(C(C)=O)C(c1ccccc1)c1nc2ccccc2[nH]c1=O` (configuration not stated), for which the kinetic solubility stood at 0.9 µg/mL (≈ 2.69 µM).
`N#CC1(C#N)C(C(=O)C23CC4CC(CC(C4)C2)C3)C12CCOCC2` (configuration not stated) showed a solubility (kinetic) of 3.3 µg/mL (≈ 10.2 µM).
As for `COc1ccccc1CNc1nc(C)c(C(=O)N(C)C)s1`, the figure is over 45.8 µg/mL; as for `CN1C(=O)c2ccc(C(=O)Nc3ccccc3O)cc2C1=O`, 13.1 µg/mL (≈ 44.2 µM).
As to `CCN1CNC(=S)N(c2ccccc2C)C1`, the solubility (kinetic) was over 35.3 µg/mL.
As for `COc1ccc(-c2cc(C(=O)N3CCCC3)no2)cc1`, the figure is 30.4 µg/mL (≈ 112 µM).
As for `O=C(Nc1ccccc1-c1ccccc1)c1ccccc1`, the kinetic solubility is over 41 µg/mL.
As for `Cc1cccc(NC(=O)C2Cc3ccccc3O/C2=N\O)c1` (configuration not stated), the figure is 1.2 µg/mL (≈ 4.05 µM).
With `Cc1ccccc1C(=O)NC(=S)N(C)C1CCCCC1` the figure was 41.4 µg/mL (≈ 143 µM); with `Cc1cccc(C(=O)NCCCNC(=O)c2ccco2)c1`, over 42.9 µg/mL.
With `COC(=O)c1cccc(NC(=O)NC(=O)c2ccccc2Cl)c1` the figure was 0.6 µg/mL (≈ 1.8 µM).
`CC(=O)C1C(c2ccc(Cl)cc2)c2c(noc2C)CC1(C)O` (configuration not stated) had a solubility (kinetic) of over 48 µg/mL.
As for `COc1ccccc1-c1noc(CCC(=O)NC2CCCC2)n1`, the figure is over 47.3 µg/mL; as for `Cc1ccsc1C(=O)Nc1nccs1`, over 33.6 µg/mL; as for `O=C(CN1C(=O)NC2(CCCCCCC2)C1=O)NCc1ccc(F)cc1`, 42.9 µg/mL (≈ 119 µM).
